Numbered stars: 1 amine (or outer) side, 2 acyl side, 3 side chain; on linkers, the order of the positions; unused ones are H or OH. Square brackets hold non-standard residues; d marks the D form. Peptide text beside a SMILES is read from it. Trp(βS-Me,7-OMe) = COc1cccc2c([C@H](C)[C@H](N)C(=O)O)c[nH]c12; X50 = C[C@@H](c1ccc(C(=O)O)cc1)[C@H](N[*:1])C(=O)[*:2]; Phe(2-F,4-COOH) = N[C@@H](Cc1ccc(C(=O)O)cc1F)C(=O)O; Phe(4-CH2COOH) = N[C@@H](Cc1ccc(CC(=O)O)cc1)C(=O)O; Trp(7-CN) = N#Cc1cccc2c(C[C@H](N)C(=O)O)c[nH]c12; Trp(7-Cl) = N[C@@H](Cc1c[nH]c2c(Cl)cccc12)C(=O)O; X43 = O=C(O)[C@H]1CC[C@@H](C(=O)[*:2])N([*:1])C1; Phe(4-CONH2) = NC(=O)c1ccc(C[C@H](N)C(=O)O)cc1; Phe(4-COOH) = N[C@@H](Cc1ccc(C(=O)O)cc1)C(=O)O; Ala(4-Pyridazinyl) = N[C@@H](Cc1ccnnc1)C(=O)O; Trp(7-aza) = N[C@@H](Cc1c[nH]c2ncccc12)C(=O)O; 3Pal(6-OMe) = COc1ccc(C[C@H](N)C(=O)O)cn1; Pip(5R-OH) = O=C(O)[C@@H]1CC[C@@H](O)CN1; X1 = O=C([C@@H]1CC[C@H](N[*:1])C1)[*:2]; Pip(4-aza) = O=C(O)[C@@H]1CNCCN1; 4Pal = N[C@@H](Cc1ccncc1)C(=O)O; NMeE = CN[C@@H](CCC(=O)O)C(=O)O; dHyp = O=C(O)[C@H]1C[C@H](O)CN1; Cit = NC(=O)NCCC[C@H](N)C(=O)O; αMeS = C[C@](N)(CO)C(=O)O; Nle = CCCC[C@H](N)C(=O)O; Sar = CNCC(=O)O
Target: T1, TNFα-induced NF-κB signal transduction pathway (TNFR1 signaling) in THP-1 cells (Homo sapiens, UniProt P19438)
T1 sequence (P19438 30-455): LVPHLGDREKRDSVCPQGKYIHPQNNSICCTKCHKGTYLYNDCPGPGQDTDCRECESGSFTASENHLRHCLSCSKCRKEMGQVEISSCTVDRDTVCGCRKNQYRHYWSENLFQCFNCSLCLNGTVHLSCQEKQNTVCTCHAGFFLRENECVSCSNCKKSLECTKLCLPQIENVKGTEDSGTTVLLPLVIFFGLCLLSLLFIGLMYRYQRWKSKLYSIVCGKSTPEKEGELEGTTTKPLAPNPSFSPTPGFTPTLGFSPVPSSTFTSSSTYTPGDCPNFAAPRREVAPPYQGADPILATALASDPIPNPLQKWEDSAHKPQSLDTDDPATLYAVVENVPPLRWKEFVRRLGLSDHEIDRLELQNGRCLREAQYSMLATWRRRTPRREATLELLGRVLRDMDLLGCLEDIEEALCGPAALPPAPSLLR
Experiment: THP-1 Lucia NF-κB reporter cell assay, inhibition of TNFα-induced NF-κB signaling
Assay type: cell-based
Conditions: THP-1 NF-κB Lucia reporter cells, 10 ng/mL TNFα, 16-18 h, secreted luciferase; read-out: THP-1 IC50
Procedure: C. Procedure for THP-1 Lucia NF-κB cells
The inhibition of TNFα-induced NF-κB signal transduction pathways was evaluated in THP-1 cells. THP-1 cells harboring NF-κB-inducible Lucia™ reporter gene (InvivoGen, cat. #thp1-nfkb) designed for monitoring NF-κB signal transduction pathway was employed to assess the inhibitory effect macrocyclic peptides on TNFR1 signaling. The cells were cultured in media containing RPMI 1640, 2 mM L-glutamine, 25 mM HEPES, 10% heat-inactivated fetal bovine serum with appropriate selection antibiotics. Assays were performed in media that was devoid of selection antibiotics. For profiling, 125 nL of peptides in DMSO (10 mM) were dispensed into Falcon® 384-well Optilux white/clear flat bottom TC-treated microtest microplate (Corning, cat. #353963) using Echo® 555. […] A suspension of 1 million cells/mL was dispensed at 20 μL/well in a 384-well plate to a density of 20,000 cells/well and pre-incubated with peptides at 37° C. for 1 h. Subsequently, 5 μL of TNF containing media (recombinant human TNFα; R&D Systems USA, cat. #210-TA-005/CF) or TNF-free media (for controls) was added to the wells. The final concentration of TNFα in the assay in 10 ng/mL. After o.n. incubation at 37° C. (16-18 h), 5 μL of supernatant was aspirated and transferred to a 384-well microplate (PerkinElmer, cat. #6007680) for measurement of secreted luciferase activity with 25 μL of QUANTI-Luc™ luminescence assay reagent (InvivoGen, cat. #rep-qlc1) in each well. The luminescence was measured in EnVision® Multimode Plate Reader (PerkinElmer). Dose response curves were analyzed using a 4-parameter logistic model to calculate IC50 values, reported in Table 2, using TIBCO® Spotfire® software employing appropriate Minimum and Maximum controls.

How did the IC50 turn out when CCCC[C@@H]1NC(=O)[C@@H]2CC[C@@H](C2)NC(=O)[C@H]([C@@H](C)c2c[nH]c3c(OC)cccc23)NC(=O)CN(C)C(=O)[C@H](Cc2ccc(O)cc2)NC(=O)[C@H](Cc2ccc(C(=O)O)cc2)NC(=O)[C@](C)(CO)NC(=O)[C@H](Cc2c[nH]c3c(Cl)cccc23)NC(=O)[C@H](Cc2ccc(OC)nc2)NC(=O)[C@H](CC(N)=O)NC(=O)[C@H](CCC(=O)O)N(C)C(=O)[C@H](Cc2c[nH]c3ccccc23)NC(=O)[C@@H]2CNCCN2C(=O)[C@H](Cc2ccncc2)NC1=O [SEQ ID NO. 100] (cyclo([4Pal][Pip(4-aza)]W[NMeE]N[3Pal(6-OMe)][Trp(7-Cl)][αMeS][Phe(4-COOH)]Y[Sar][Trp(βS-Me,7-OMe)][X1][Nle])) was run?
The IC50 was 1.3 nM.

Which IC50 does the source give for CCCC[C@@H]1NC(=O)[C@@H]2CC[C@@H](C2)NC(=O)[C@H]([C@@H](C)c2c[nH]c3c(OC)cccc23)NC(=O)CN(C)C(=O)[C@H](Cc2ccc(C(=O)O)cc2)NC(=O)[C@H](Cc2ccc(C(N)=O)cc2)NC(=O)[C@](C)(CO)NC(=O)[C@H](Cc2c[nH]c3c(Cl)cccc23)NC(=O)[C@H](Cc2ccc(C(=O)O)cc2)NC(=O)[C@H](CC(N)=O)NC(=O)[C@H]2C[C@H](O)CN2C(=O)[C@H](Cc2c[nH]c3ccccc23)NC(=O)[C@@H]2CC[C@@H](O)CN2C(=O)[C@H](Cc2ccnnc2)NC1=O [SEQ ID NO. 105] (cyclo(N[Phe(4-COOH)][Trp(7-Cl)][αMeS][Phe(4-CONH2)][Phe(4-COOH)][Sar][Trp(βS-Me,7-OMe)][X1][Nle][Ala(4-Pyridazinyl)][Pip(5R-OH)]W[dHyp])) here?
Its IC50 is 0.7 nM.

CCCC[C@@H]1NC(=O)[C@@H]2CC[C@@H](C2)NC(=O)[C@H]([C@@H](C)c2c[nH]c3c(OC)cccc23)NC(=O)CN(C)C(=O)[C@H](Cc2ccc(O)cc2)NC(=O)[C@H](Cc2ccc(C(=O)O)cc2)NC(=O)[C@](C)(CO)NC(=O)[C@H](Cc2c[nH]c3c(Cl)cccc23)NC(=O)[C@H](Cc2ccc(C(=O)O)cc2F)NC(=O)[C@H](CC(N)=O)NC(=O)[C@H](CCC(=O)O)N(C)C(=O)[C@H](Cc2c[nH]c3ccccc23)NC(=O)[C@@H]2CNCCN2C(=O)[C@H](Cc2ccncc2)NC1=O [SEQ ID NO. 108] (cyclo([4Pal][Pip(4-aza)]W[NMeE]N[Phe(2-F,4-COOH)][Trp(7-Cl)][αMeS][Phe(4-COOH)]Y[Sar][Trp(βS-Me,7-OMe)][X1][Nle])) was tested. Which IC50 did it give?
The IC50 was 1.2 nM.

CCCC[C@@H]1NC(=O)[C@@H]2CC[C@@H](C2)NC(=O)[C@H]([C@@H](C)c2c[nH]c3c(OC)cccc23)NC(=O)CN(C)C(=O)[C@H](Cc2ccc(O)cc2)NC(=O)[C@H](Cc2ccc(CC(=O)O)cc2)NC(=O)[C@](C)(CO)NC(=O)[C@H](Cc2c[nH]c3c(Cl)cccc23)NC(=O)[C@H](Cc2ccncc2)NC(=O)[C@H](CC(N)=O)NC(=O)[C@H](CCC(=O)O)N(C)C(=O)[C@H](Cc2c[nH]c3ccccc23)NC(=O)[C@@H]2CNCCN2C(=O)[C@H](Cc2ccncc2)NC1=O [SEQ ID NO. 111] (cyclo([4Pal][Trp(7-Cl)][αMeS][Phe(4-CH2COOH)]Y[Sar][Trp(βS-Me,7-OMe)][X1][Nle][4Pal][Pip(4-aza)]W[NMeE]N)) was tested. Which IC50 did it give?
Its IC50 is 1.6 nM.

CCCC[C@@H]1NC(=O)[C@@H]2CC[C@@H](C2)NC(=O)[C@H]([C@@H](C)c2c[nH]c3c(OC)cccc23)NC(=O)CN(C)C(=O)[C@H](Cc2ccc(C(N)=O)cc2)NC(=O)[C@H](Cc2ccc(C(N)=O)cc2)NC(=O)[C@](C)(CO)NC(=O)[C@H](Cc2c[nH]c3c(C#N)cccc23)NC(=O)[C@H](Cc2ccc(C(=O)O)cc2)NC(=O)[C@H](CC(N)=O)NC(=O)[C@H]2C[C@H](O)CN2C(=O)[C@H](Cc2c[nH]c3ncccc23)NC(=O)[C@H](CCCNC(N)=O)NC(=O)[C@H]([C@@H](C)c2ccc(C(=O)O)cc2)NC1=O [SEQ ID NO. 118] (cyclo([Cit][Trp(7-aza)][dHyp]N[Phe(4-COOH)][Trp(7-CN)][αMeS][Phe(4-CONH2)][Phe(4-CONH2)][Sar][Trp(βS-Me,7-OMe)][X1][Nle][X50])) was tested. Which IC50 did it give?
The IC50 was 2.8 nM.

With CCCC[C@@H]1NC(=O)[C@@H]2CC[C@@H](C2)NC(=O)[C@H]([C@@H](C)c2c[nH]c3c(OC)cccc23)NC(=O)CN(C)C(=O)[C@H](Cc2ccc(O)cc2)NC(=O)[C@H](Cc2ccc(C(=O)O)cc2)NC(=O)[C@](C)(CO)NC(=O)[C@H](Cc2c[nH]c3c(Cl)cccc23)NC(=O)[C@H](Cc2ccncc2)NC(=O)[C@H](CC(N)=O)NC(=O)[C@H](CCC(=O)O)N(C)C(=O)[C@H](Cc2c[nH]c3ccccc23)NC(=O)[C@@H]2CC[C@H](C(=O)O)CN2C(=O)[C@H](Cc2ccncc2)NC1=O [SEQ ID NO. 120] (cyclo([4Pal][Trp(7-Cl)][αMeS][Phe(4-COOH)]Y[Sar][Trp(βS-Me,7-OMe)][X1][Nle][4Pal][X43]W[NMeE]N)) as the compound, how does the IC50 read?
Its IC50 is 1.4 nM.
